Results reported in publication PMC7760690, “Neuroprotective Metabolites from Vietnamese Marine Derived Fungi of Aspergillus and Penicillium Genera” (Marine Drugs, 2020).
Read-outs that look alike come from different tables or passages of the source.

Key:
[1] = DPPH radical scavenger assay; conditions: 30 min; for EC50: MeOH, read-out: DPPH Radical Scavenging EC50; for DPPH Radical Scavenging 100 µM % of MeOH: compound 100 µM, absorbance 520 nm
Method: The DPPH radical scavenging activities of the compounds were tested as described.
The compounds were dissolved in MeOH, and the solutions (120 µL) were dispensed into wells of a 96-well microplate. In all, 30 µL of the DPPH (Sigma-Aldrich, Steinheim, Germany) solution in MeOH (7.5 × 10^−3 M) was added to each well. The concentrations of the test compounds in the mixtures were 10 and 100 µM. The mixtures were shaken and left to stand for 30 min, and the absorbance of the resulting solutions was measured at 520 nm with a microplate reader MultiscanFC (ThermoScientific, Waltham, MA, USA). The concentration scavenging 50% of the DPPH radical (EC50) was calculated for each investigated compound.

[2] = test system: 6-OHDA-treated Neuro-2a cells; test: ROS level in 6-OHDA-treated cells (H2DCFDA); format: cell-based, murine; conditions: compounds 1-5; compound 10 µM 1 h, 6-OHDA 50 µM 1 h
Method: (§1) The murine neuroblastoma cell line Neuro-2a was purchased from ATCC.
(§2) Neuro-2a cells were cultured in DMEM medium containing 10% fetal bovine serum (Biolot, St. Petersburg, Russia) and 1% penicillin/streptomycin (Biolot, St. Petersburg, Russia). Cells were incubated at 37 °C in a humidified atmosphere containing 5% (v/v) CO2 [71].
(§3) The cells (1 × 10^4 cells/well of a 96-well plate) were incubated with compound solutions (10 µM) during 1 h. Then, 6-OHDA/PQ/rotenone were added to cell suspension to resulting concentration of 50 µM, 500 µM and 10 µM respectively for incubation during 1 h. Cells incubated without neurotoxins and compounds and with neurotoxins alone were used as positive and negative controls, respectively. The 20 µL of 2,7-dichlorodihydrofluorescein diacetate solution (H2DCFDA, Molecular Probes, Eugene, OR, USA) was added to each well (10 µM, final concentration) and the plate was incubated for an additional 10 min at 37 °C. The intensity of dichlorofluorescein fluorescence was measured with PHERAstar FS plate reader (BMG Labtech, Ortenberg, Germany) at λex = 485 nm and λem = 518 nm. The data were processed by MARS Data Analysis v. 3.01R2 (BMG Labtech, Germany). The results were presented as the percent of positive control data.

[3] = test system: Escherichia coli and Bacillus subtilis; parameters: method as in doi:10.1007/s10600-016-1745-x; conditions: cited from earlier work
[4] = parameters: method as in doi:10.1007/BF03175531; conditions: cited from earlier work
[5] = parameters: method as in doi:10.1007/BF01922472, doi:10.1016/j.tet.2016.09.008; conditions: cited from earlier work
[6] = MTT cytotoxicity assay; format: cell-based, murine; conditions: mouse, Neuro-2a neuroblastoma cells; Neuro-2a cells, MTT
Method: as §1, §2
(§4) The in vitro cytotoxicity of the individual substances was evaluated using an MTT (3-(4,5-dimethylthiazol-2-yl)-2,5-diphenyltetrazolium bromide) assay, which was performed according to the manufacturer’s instructions (Sigma-Aldrich, USA). Absorbance of the converted formazan was measured using a Multiskan FC plate photometer (Thermo Scientific, Waltham, MA, USA) at λ = 570 nm. The results were presented as percent of control data, and concentration of cell viability inhibition on 50% (IC50) was calculated.

[7] = test system: PQ-treated Neuro-2a cells; test: ROS level in PQ-treated cells (H2DCFDA); format: cell-based, murine; conditions: compounds 1-5; compound 10 µM 1 h, PQ 500 µM 1 h
Method: as §1, §2
as §3, with “The cells (1 × 10^4 cells/well of a 96-well plate) were incubated with compound solutions (10 µM) during 1 h.” left out

[8] = test system: rotenone-treated Neuro-2a cells; test: ROS level in rotenone-treated cells (H2DCFDA); format: cell-based, murine; conditions: compounds 1-5; compound 10 µM 1 h, rotenone 10 µM 1 h
Method: as §1, §2, §3

[9] = test system: MCF-7, HepG-2, NCI-H460 and SF-268; parameters: method as in PMID 18444265, PMID 28481313, PMID 27128202; conditions: four tumor cell lines and some others; cited from earlier work
[10] = test system: Nrf2-ARE pathway; parameters: method as in PMID 27450949; conditions: cited from earlier work
[11] = test system: murine lymphoma L5178Y cell line; parameters: method as in doi:10.1016/j.phytol.2015.06.003; conditions: cited from earlier work
[12] = test system: PQ-treated Neuro-2a cells; test: Paraquat-induced PD cell model, cell viability (MTT); format: cell-based, murine; conditions: compounds 1-5; 1 and/or 10 µM; paraquat 500 µM; 24 h
Method: as §1, §2
(§5) The neuroblastoma Neuro-2a line cells (1 × 10^4 cells/well) were treated with the test compounds at concentrations of 1 and/or 10 µM for 1 h, and then the neurotoxins were added to the neuroblastoma cell suspensions. Rotenone (Sigma-Aldrich, USA) was used at the concentration of 10 µM. Paraquat (Sigma-Aldrich, USA) was used at 500 µM. 6-Hydroxydopamine (Sigma-Aldrich, USA) was used at 50 µM. Cells incubated without neurotoxins and the test compounds and cells incubated with neurotoxins only were used as positive and negative controls, respectively. After 24 h of incubation, the cell viabilities were measured using the MTT method. The results are presented as the percent of positive control data.

[13] = test system: neuroblastoma Neuro-2a cells; test: MTT cytotoxicity assay; format: cell-based, murine; conditions: up to 100 µM
Method: as §1, §2, §4

[14] = test system: rotenone-treated Neuro-2a cells; test: Rotenone-induced PD cell model, cell viability (MTT); format: cell-based, murine; conditions: compounds 1-5; 1 and/or 10 µM; rotenone 10 µM; 24 h
Method: as §1, §2, §5

[15] = cited from earlier work
[16] = test system: K562, BEL-7042, SGC-7901, A-549 and Hela cell lines; parameters: method as in PMID 30946944; conditions: cited from earlier work
[17] = test system: methicillin-resistant Staphylococcus aureus (MRSA), S. aureus, Enterococcus faecalis and Acinetobacter baumannii, E. coli and Klebsiella pneumonia; parameters: method as in PMID 30946944; conditions: cited from earlier work
[18] = test system: Neuro-2a cells treated with 6-OHDA; test: 6-OHDA-induced PD cell model, cell viability (MTT); format: cell-based, murine; conditions: compounds 1-5; 1 and/or 10 µM; 6-OHDA 50 µM; 24 h
Method: as §1, §2, §5

[19] = test system: several microbial pathogens; parameters: method as in PMID 17994702, doi:10.1016/j.phytol.2015.04.009; conditions: cited from earlier work
[20] = test system: HeLa; parameters: method as in PMID 24871461; conditions: cited from earlier work
[21] = test system: a number of other cell lines; parameters: method as in PMID 17994702, PMID 30658264; conditions: cited from earlier work

SMILES | EC50 [1] [µM] | DPPH Radical Scavenging 100 µM % of MeOH [1] | influence on ROS level in 6-OHDA-treated cells [2] | antinematodal activity [4] | phytotoxic activity [5] | IC50 [6] [µM] | influence on ROS level in PQ-treated cells [7] | influence on ROS level in rotenone-treated cells [8] | effect on viability of PQ-treated cells [12] | cytotoxicity against Neuro-2a cells [13] | effect on viability of rotenone-treated cells [14] | effect on viability of Neuro-2a cells incubated with 6-OHDA [18] | further results
O=C1C[C@H](O)[C@@H](O)c2cc(O)cc(O)c21 [Compound 1, (3S,4S)-4-hydroxyscytalone] | > 100 | 83.4 ± 1.2 % of MeOH | decreased a ROS level | antinematodal agents | phytotoxic | > 100 | decreased a ROS level | decreased a ROS level | – | – | – | – | antimicrobial activity [3]: weak antimicrobial activity; cytotoxicity against tumor cell lines [9]: no activity was shown
CC1CC(O)CC2(Cc3cc(O)cc(O)c3C(=O)O2)O1 (centres unmarked) [Compound 3, demethylcitreoviranol] | > 100 | 91.2 ± 1.8 % of MeOH | – | – | – | > 100 | effective against ROS level enhancing | effective against ROS level enhancing | – | – | – | – | inducing of the Nrf2-ARE pathway [10]: weak inducing of the Nrf2-ARE pathway
Cc1cc(O)c(C)c(=O)o1 [Compound 4, 4-hydroxy-3,6-dimethyl-2-pyrone] | – | 87.2 ± 1.4 % of MeOH | – | – | – | > 100 | had almost no effect | significantly reduced the ROS level | had no effect on viability | not cytotoxic | did not affect | did not demonstrate any protective effects | cytotoxicity [11]: weak cytotoxicity; EC50 ([15]; reported earlier, read-out: DPPH Radical Scavenging EC50): 500 µM; DPPH radical scavenging activity ([15]; via donation of a hydrogen atom and adduct forming): shows DPPH radical scavenging activity; cytotoxic activities [16]: ineffective; antibacterial activities [17]: ineffective
C[C@H](O)CC1=C[C@H](O)[C@@H](C)OC1=O [Compound 5, Dihydroaspyrone] | > 100 | 95.2 ± 1.0 % of MeOH | reduced ROS level | – | – | > 100 | significantly reduced the ROS level | significantly reduced the ROS level | statistically increased viability of PQ-treated cells only | not cytotoxic | did not affect | did not demonstrate any protective effects | antimicrobial activity [19]: did not show; cytotoxicity [20]: weak cytotoxicity; cytotoxicity [21]: did not show cytotoxicity
O=C1C[C@H](O)[C@@H](O)c2cccc(O)c21 [Compound 2, (3S,4S)-4-hydroxy-6-dehydroxyscytalone] | > 100 | 84.8 ± 3.2 % of MeOH | decreased a ROS level | antinematodal agents | phytotoxic | > 100 | decreased a ROS level | decreased a ROS level | – | – | – | – | –
